Earlier results as cited in paper PMC9239115 (Amino acids, 2017).

Key:
C6 glioma cell lines = conditions: up to 200 μM; ref Pes 2013
[1] = degraded in the circulation by ACE; ref Rodgers et al. 2006

Structure (SMILES) | Toxicity on C6 glioma cell lines (C6 glioma cell lines) | Half-life in the circulation [1]
NC[C@H]1C[C@@H](C(=O)O)C1 [ACCA, cis-3-(Aminomethyl)cyclobutanecarboxylic acid] | did not show any toxicity | 
CC[C@H](C)[C@H](NC(=O)[C@H](Cc1ccc(O)cc1)NC(=O)[C@@H](NC(=O)[C@H](CCCNC(=N)N)NC(=O)[C@@H](N)CC(=O)O)C(C)C)C(=O)N[C@@H](Cc1c[nH]cn1)C(=O)N1CCC[C@H]1C(=O)O [Ang-(1–7), Angiotensin-(1–7)] |  | 29 min
